US20210137119A1 (priority 2017, published 2021)
Where two headings read alike, the source gives them in different places.

Tested on: Fusarium graminearum in wheat
Type: in vivo
[1] = Trial 1, dosage mL/Ha: benzovindiflupyr 200, phenamacril 1500, combination 200 + 1500
[2] = Trial 2, dosage mL/Ha: benzovindiflupyr 200, phenamacril 1500, combination 200 + 1500
[3] = Trial 3, dosage mL/Ha: benzovindiflupyr 200, phenamacril 1500, combination 150 + 1250
[4] = Trial 4, dosage mL/Ha: benzovindiflupyr 200, phenamacril 1500, combination 150 + 1250

Row | SMILES | % disease control of Fusarium graminearum in wheat at 3DAA, Actual [1] [%] | % disease control of Fusarium graminearum in wheat at 7DAA, Actual [2] [%] | % disease control of Fusarium graminearum in wheat at 3DAA, Actual [3] [%] | % disease control of Fusarium graminearum in wheat at 7DAA, Actual [4] [%]
1 | CCOC(=O)C(C#N)=C(N)c1ccccc1 [Phenamacril, ethyl (2EZ)-3-amino-2-cyano-3-phenylacrylate] | 83.5 | 83.5 | 83.5 | 83.5
2 | Cn1cc(C(=O)Nc2cccc3c2[C@@H]2CC[C@H]3C2=C(Cl)Cl)c(C(F)F)n1 (racemic) [Benzovindiflupyr, N-[(1RS,4SR)-9-(dichloromethylene)-1,2,3,4-tetrahydro-1,4-methanonaphthalen-5-yl]-3-(difluoromethyl)-1-methylpyrazole-4-carboxamide] | 27 | 27 | 27 | 27
